# Data published in PubChem BioAssay (NCI).
# Values joined by “and” are separate entries in the source; they are usually repeats but may differ in a detail not shown here. Equal values may be shown once.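 Following 48 hours of exposure in 96-well plates, responses at five concentrations were used to interpolate endpoints linearly. At the GI50, growth is halved. Definition used: TGI = concentration required for complete inhibition of growth.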
# Test system: XF 498 CNS
# Test: NCI tumour cell line growth inhibition, 48 h
SMILES,TGI,GI50 [µM]
CCCCN(CCCC)CC(C(=O)Nc1ccc([N+](=O)[O-])cc1[N+](=O)[O-])/C(C)=N\NC(=S)NN (stereo not given),> 100 µM,–
S=C(N/N=C/c1ccco1)NC12CC3CC(CC(C3)C1)C2,> 100 µM,–
CS(=O)(=O)N/N=C/CN1C(=O)c2ccccc2C1=O,> 100 µM,–
COC(=O)C1=C(c2ccc3c(c2)OCO3)O[C@H](c2cc(OC)c(OC)c(OC)c2)[C@H]1COC(C)=O,36.8 µM,–
COc1ccc(OC)c(NC(=O)C(=O)NNC(=O)c2sc(NNC(C)=O)nc2C)c1,85.3 µM,–
O=[N+]([O-])c1nccn1CC(O)c1ccc(F)cc1 (stereo not given),> 100 µM,–
COC(=O)c1cc2c3ccccc3n(C(C)=O)c2cn1,89.9 µM,–
O=S(=O)([O-])c1ccc2c(c1)-c1nc-2nc2[n-]c(nc3nc(nc4[n-]c(n1)c1ccc(S(=O)(=O)[O-])cc41)-c1cc(S(=O)(=O)[O-])ccc1-3)c1ccc(S(=O)(=O)[O-])cc21.[Cu+2].[Na+],> 100 µM,68.3
CCCCOC(=O)C1C(c2ccc(Cl)cc2)NC(c2ccc(Cl)cc2)C(C(=O)OCCCC)S1(=O)=O (stereo not given),> 100 µM,–
Cc1cc(Br)cc(C)c1NC(=O)C(=O)C(C(=O)c1ccc2ccccc2c1)C1OC(=O)c2ccccc21 (stereo not given),18 µM,–
CCOC(=O)Oc1c(OC)cc(C(=O)NC2CCc3cc(OC)c(OC)c(OC)c3-c3ccc(SC)c(=O)cc32)cc1OC (stereo not given),0.896 µM,–
CC(C)(C)OC(=O)NCC(=O)OCc1ccccc1,> 100 µM,–
CC(C)(C)[SiH]12(OC(C(F)(F)F)(C(F)(F)F)c3ccccc31)OC(C(F)(F)F)(C(F)(F)F)c1ccccc12,24.3 µM,–
CSc1nc2c(nc(C)c(=O)n2C2OCC(OC(C)=O)C(OC(C)=O)C2OC(C)=O)c(=O)[nH]1 (stereo not given),> 100 µM,–
O=S(O)CCCCSSCC(O)C(O)CSSCCCCS(=O)O (stereo not given),35.9 µM and 26 µM,–
O=C1OC(c2ccccc2)=N/C1=C/C=C/c1ccco1,> 100 µM,–
Cc1ccc(S(=O)(=O)NCC2CCCCC2=O)cc1 (stereo not given),> 100 µM,–
CNC(=S)NC1CCCCC1NC(=S)NC (stereo not given),> 100 µM,–
CC1OC(n2cc(F)c(=O)[nH]c2=O)C=CC1O (stereo not given),> 100 µM,–
C=C(CCCCC)CN1CCCC1[C@@](C)(O)CC(=O)OCC (stereo not given in full),> 100 µM,–
O=C1c2ccccc2C(=O)C1(Cl)C1(S(=O)(=O)O)c2ccccc2-c2ccccc21,> 100 µM,–

# Test system: KM20L2 colon
# Test: NCI tumour cell line growth inhibition, 48 h
SMILES,TGI [µM],GI50 [µM]
O=[n+]1c2c(n([O-])c3ccccc31)CCCCCCCCCC2,> 100,–
CNC(=S)N(C)C(=S)Nn1c(=O)c(C)nn(C)c1=S,> 100,–
O=C1CCCC/C(=C/c2ccccc2)N1,> 100,–
O=C1CN=C(C[N+](=O)[O-])c2ccccc21,> 100,–
CCCCN(CCCC)CC(C(=O)Nc1ccc([N+](=O)[O-])cc1[N+](=O)[O-])/C(C)=N\NC(=S)NN (stereo not given),> 100,–
S=C(N/N=C/c1ccco1)NC12CC3CC(CC(C3)C1)C2,> 100,–
CS(=O)(=O)N/N=C/CN1C(=O)c2ccccc2C1=O,> 100,–
CC(=O)O.CC(=O)O.CC(=O)O.CC(=O)O.CC(=O)O.CC(=O)O.O.[Ti].[Ti],> 100,> 100
COC(=O)C1=C(c2ccc3c(c2)OCO3)O[C@H](c2cc(OC)c(OC)c(OC)c2)[C@H]1COC(C)=O,8.72,–
COc1ccc(OC)c(NC(=O)C(=O)NNC(=O)c2sc(NNC(C)=O)nc2C)c1,> 100,–
O=[N+]([O-])c1nccn1CC(O)c1ccc(F)cc1 (stereo not given),> 100,–
COc1ccc(NC(=O)CCc2cc(-c3ccc(O)c(OC)c3)nc(NC#N)n2)cc1,> 100,–
COC(=O)c1cc2c3ccccc3n(C(C)=O)c2cn1,> 100,–
O=C1c2ccccc2C2(Br)C(=O)c3ccccc3C12 (stereo not given),> 100,–
O=S(=O)([O-])c1ccc2c(c1)-c1nc-2nc2[n-]c(nc3nc(nc4[n-]c(n1)c1ccc(S(=O)(=O)[O-])cc41)-c1cc(S(=O)(=O)[O-])ccc1-3)c1ccc(S(=O)(=O)[O-])cc21.[Cu+2].[Na+],> 100,2.35
CCCCOC(=O)C1C(c2ccc(Cl)cc2)NC(c2ccc(Cl)cc2)C(C(=O)OCCCC)S1(=O)=O (stereo not given),> 100,–

SMILES,TGI [µM],GI50 [µM]
Cc1cc(Br)cc(C)c1NC(=O)C(=O)C(C(=O)c1ccc2ccccc2c1)C1OC(=O)c2ccccc21 (stereo not given),38.7,–
CCOC(=O)Oc1c(OC)cc(C(=O)NC2CCc3cc(OC)c(OC)c(OC)c3-c3ccc(SC)c(=O)cc32)cc1OC (stereo not given),–,0.0119
CC(=O)Nc1ccc(C(=O)NN2C(=O)C(Cl)C2c2ccccc2)cc1 (stereo not given),> 100,–
Cc1ccc(SC(C)/C=C/NNC2=NC(c3ccccc3)C(c3ccccc3)=NN2)cc1 (stereo not given),27.6,–
CC(C)(C)[SiH]12(OC(C(F)(F)F)(C(F)(F)F)c3ccccc31)OC(C(F)(F)F)(C(F)(F)F)c1ccccc12,7.83,–
CSc1nc2c(nc(C)c(=O)n2C2OCC(OC(C)=O)C(OC(C)=O)C2OC(C)=O)c(=O)[nH]1 (stereo not given),> 100,–
O=c1n(CC2CO2)c(=O)n(CC2CO2)c(=O)n1CC1CO1 (stereo not given),201,–
O=S(O)CCCCSSCC(O)C(O)CSSCCCCS(=O)O (stereo not given),> 100,–
O=C1OC(c2ccccc2)=N/C1=C/C=C/c1ccco1,> 100,–
Cc1ccccc1N1C(=O)/C(=C/c2ccc(N(CCC#N)CCC#N)cc2)N=C1c1cc([N+](=O)[O-])ccc1Cl,> 100,–
Cc1ccc(S(=O)(=O)NCC2CCCCC2=O)cc1 (stereo not given),> 100,–
CNC(=S)NC1CCCCC1NC(=S)NC (stereo not given),> 100,–
CC1OC(n2cc(F)c(=O)[nH]c2=O)C=CC1O (stereo not given),> 100,–
C=C(C=O)[C@@H]1C2OC(=O)C(=C)[C@@H]2CC(O)[C@@]1(C)CC (stereo not given in full),24.9,–
C=C(CCCCC)CN1CCCC1[C@@](C)(O)CC(=O)OCC (stereo not given in full),> 100,–
O=C1c2ccccc2C(=O)C1(Cl)C1(S(=O)(=O)O)c2ccccc2-c2ccccc21,> 100,–

# Test system: LXFL 529 NSCLC
# Test: NCI tumour cell line growth inhibition, 48 h
SMILES,TGI,GI50 [µM]
O=[n+]1c2c(n([O-])c3ccccc31)CCCCCCCCCC2,> 100 µM,–
CNC(=S)N(C)C(=S)Nn1c(=O)c(C)nn(C)c1=S,> 100 µM,–
O=C1CCCC/C(=C/c2ccccc2)N1,> 100 µM,–
O=C1CN=C(C[N+](=O)[O-])c2ccccc21,> 100 µM,–
CCCCN(CCCC)CC(C(=O)Nc1ccc([N+](=O)[O-])cc1[N+](=O)[O-])/C(C)=N\NC(=S)NN (stereo not given),> 100 µM,–
S=C(N/N=C/c1ccco1)NC12CC3CC(CC(C3)C1)C2,> 100 µM,–
CS(=O)(=O)N/N=C/CN1C(=O)c2ccccc2C1=O,> 100 µM,–
CC(=O)O.CC(=O)O.CC(=O)O.CC(=O)O.CC(=O)O.CC(=O)O.O.[Ti].[Ti],> 100 µM,> 100
COC(=O)C1=C(c2ccc3c(c2)OCO3)O[C@H](c2cc(OC)c(OC)c(OC)c2)[C@H]1COC(C)=O,36.3 µM,–
COc1ccc(OC)c(NC(=O)C(=O)NNC(=O)c2sc(NNC(C)=O)nc2C)c1,81.6 µM,–
O=[N+]([O-])c1nccn1CC(O)c1ccc(F)cc1 (stereo not given),> 100 µM,–
COc1ccc(NC(=O)CCc2cc(-c3ccc(O)c(OC)c3)nc(NC#N)n2)cc1,> 100 µM,–
COC(=O)c1cc2c3ccccc3n(C(C)=O)c2cn1,> 100 µM,–
O=C1c2ccccc2C2(Br)C(=O)c3ccccc3C12 (stereo not given),> 100 µM,–
O=S(=O)([O-])c1ccc2c(c1)-c1nc-2nc2[n-]c(nc3nc(nc4[n-]c(n1)c1ccc(S(=O)(=O)[O-])cc41)-c1cc(S(=O)(=O)[O-])ccc1-3)c1ccc(S(=O)(=O)[O-])cc21.[Cu+2].[Na+],> 100 µM,26.5
CCCCOC(=O)C1C(c2ccc(Cl)cc2)NC(c2ccc(Cl)cc2)C(C(=O)OCCCC)S1(=O)=O (stereo not given),> 100 µM,–
Cc1cc(Br)cc(C)c1NC(=O)C(=O)C(C(=O)c1ccc2ccccc2c1)C1OC(=O)c2ccccc21 (stereo not given),22.3 µM,–

SMILES,TGI,GI50 [µM]
CCOC(=O)Oc1c(OC)cc(C(=O)NC2CCc3cc(OC)c(OC)c(OC)c3-c3ccc(SC)c(=O)cc32)cc1OC (stereo not given),42.1 µM,< 0.007
CC(=O)Nc1ccc(C(=O)NN2C(=O)C(Cl)C2c2ccccc2)cc1 (stereo not given),> 100 µM,–
CC(C)(C)OC(=O)NCC(=O)OCc1ccccc1,> 100 µM,–
Cc1ccc(SC(C)/C=C/NNC2=NC(c3ccccc3)C(c3ccccc3)=NN2)cc1 (stereo not given),> 100 µM,–
CC(C)(C)[SiH]12(OC(C(F)(F)F)(C(F)(F)F)c3ccccc31)OC(C(F)(F)F)(C(F)(F)F)c1ccccc12,16.2 µM,–
CSc1nc2c(nc(C)c(=O)n2C2OCC(OC(C)=O)C(OC(C)=O)C2OC(C)=O)c(=O)[nH]1 (stereo not given),> 100 µM,–
O=S(O)CCCCSSCC(O)C(O)CSSCCCCS(=O)O (stereo not given),22.5 µM and 30.5 µM,–
O=C1OC(c2ccccc2)=N/C1=C/C=C/c1ccco1,> 100 µM,–
Cc1ccccc1N1C(=O)/C(=C/c2ccc(N(CCC#N)CCC#N)cc2)N=C1c1cc([N+](=O)[O-])ccc1Cl,> 100 µM,–
COc1ccc(C2S/C(=C\c3ccccc3O)C(=O)N2NC(=O)Cc2ccccc2)cc1 (stereo not given),> 100 µM,–
Cc1ccc(S(=O)(=O)NCC2CCCCC2=O)cc1 (stereo not given),> 100 µM,–
CNC(=S)NC1CCCCC1NC(=S)NC (stereo not given),> 100 µM,–
CC1OC(n2cc(F)c(=O)[nH]c2=O)C=CC1O (stereo not given),> 100 µM,–
C=C(C=O)[C@@H]1C2OC(=O)C(=C)[C@@H]2CC(O)[C@@]1(C)CC (stereo not given in full),8.23 µM,–
C=C(CCCCC)CN1CCCC1[C@@](C)(O)CC(=O)OCC (stereo not given in full),> 100 µM,–
O=C1c2ccccc2C(=O)C1(Cl)C1(S(=O)(=O)O)c2ccccc2-c2ccccc21,> 100 µM,–

# Test system: SNB-78 CNS
# Test: NCI tumour cell line growth inhibition, 48 h
SMILES,TGI,GI50 [µM]
O=[n+]1c2c(n([O-])c3ccccc31)CCCCCCCCCC2,> 100 µM,–
CNC(=S)N(C)C(=S)Nn1c(=O)c(C)nn(C)c1=S,> 100 µM,–
O=C1CCCC/C(=C/c2ccccc2)N1,> 100 µM,–
O=C1CN=C(C[N+](=O)[O-])c2ccccc21,> 100 µM,–
S=C(N/N=C/c1ccco1)NC12CC3CC(CC(C3)C1)C2,> 100 µM,–
CS(=O)(=O)N/N=C/CN1C(=O)c2ccccc2C1=O,> 100 µM,–
CC(=O)O.CC(=O)O.CC(=O)O.CC(=O)O.CC(=O)O.CC(=O)O.O.[Ti].[Ti],> 100 µM,> 100
COC(=O)C1=C(c2ccc3c(c2)OCO3)O[C@H](c2cc(OC)c(OC)c(OC)c2)[C@H]1COC(C)=O,> 100 µM,–
COc1ccc(OC)c(NC(=O)C(=O)NNC(=O)c2sc(NNC(C)=O)nc2C)c1,> 100 µM,–
COc1ccc(NC(=O)CCc2cc(-c3ccc(O)c(OC)c3)nc(NC#N)n2)cc1,> 100 µM,–
COC(=O)c1cc2c3ccccc3n(C(C)=O)c2cn1,> 100 µM,–
O=S(=O)([O-])c1ccc2c(c1)-c1nc-2nc2[n-]c(nc3nc(nc4[n-]c(n1)c1ccc(S(=O)(=O)[O-])cc41)-c1cc(S(=O)(=O)[O-])ccc1-3)c1ccc(S(=O)(=O)[O-])cc21.[Cu+2].[Na+],> 100 µM,> 100
CC(=O)Nc1ccc(C(=O)NN2C(=O)C(Cl)C2c2ccccc2)cc1 (stereo not given),> 100 µM,–
CC(C)(C)OC(=O)NCC(=O)OCc1ccccc1,> 100 µM,–
Cc1ccc(SC(C)/C=C/NNC2=NC(c3ccccc3)C(c3ccccc3)=NN2)cc1 (stereo not given),> 100 µM,–
CC(C)(C)[SiH]12(OC(C(F)(F)F)(C(F)(F)F)c3ccccc31)OC(C(F)(F)F)(C(F)(F)F)c1ccccc12,25.3 µM,–
O=c1n(CC2CO2)c(=O)n(CC2CO2)c(=O)n1CC1CO1 (stereo not given),199 µM,–
O=S(O)CCCCSSCC(O)C(O)CSSCCCCS(=O)O (stereo not given),97.7 µM and > 100 µM,–
O=C1OC(c2ccccc2)=N/C1=C/C=C/c1ccco1,> 100 µM,–
Cc1ccccc1N1C(=O)/C(=C/c2ccc(N(CCC#N)CCC#N)cc2)N=C1c1cc([N+](=O)[O-])ccc1Cl,> 100 µM,–
Cc1ccc(S(=O)(=O)NCC2CCCCC2=O)cc1 (stereo not given),> 100 µM,–
CNC(=S)NC1CCCCC1NC(=S)NC (stereo not given),> 100 µM,–
CC1OC(n2cc(F)c(=O)[nH]c2=O)C=CC1O (stereo not given),> 100 µM,–
C=C(C=O)[C@@H]1C2OC(=O)C(=C)[C@@H]2CC(O)[C@@]1(C)CC (stereo not given in full),24.9 µM,–
C=C(CCCCC)CN1CCCC1[C@@](C)(O)CC(=O)OCC (stereo not given in full),> 100 µM,–
O=C1c2ccccc2C(=O)C1(Cl)C1(S(=O)(=O)O)c2ccccc2-c2ccccc21,> 100 µM,–
